Laboratory results published in PubChem BioAssay (NCI).
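Following 48 hours of exposure in 96-well plates, responses at five concentrations were used to interpolate endpoints linearly. At the TGI there is no net growth.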

Tests used:
Test in all cases: growth of human tumour cells (NCI), 48 h
786-0 renal = system: 786-0 renal
A498 renal = system: A498 renal
A549 NSCLC = system: A549 NSCLC
ACHN renal = system: ACHN renal
BT-549 breast = system: BT-549 breast
CAKI-1 renal = system: CAKI-1 renal
CCRF-CEM leukemia = system: CCRF-CEM leukemia
COLO 205 colon = system: COLO 205 colon
DU-145 prostate = system: DU-145 prostate
EKVX NSCLC = system: EKVX NSCLC
HCC-2998 colon = system: HCC-2998 colon
HCT-116 colon = system: HCT-116 colon
HCT-15 colon = system: HCT-15 colon
HL-60(TB) leukemia = system: HL-60(TB) leukemia
HOP-62 NSCLC = system: HOP-62 NSCLC
HS 578T breast = system: HS 578T breast
HT29 colon = system: HT29 colon
IGROV1 ovarian = system: IGROV1 ovarian
K-562 leukemia = system: K-562 leukemia
KM12 colon = system: KM12 colon
LOX IMVI melanoma = system: LOX IMVI melanoma
M14 melanoma = system: M14 melanoma
MALME-3M melanoma = system: MALME-3M melanoma
MCF7 breast = system: MCF7 breast
MDA-MB-231 breast = system: MDA-MB-231 breast
MDA-MB-435 = system: MDA-MB-435
MDA-N = system: MDA-N
MOLT-4 leukemia = system: MOLT-4 leukemia
NCI-H226 lung = system: NCI-H226 lung
NCI-H23 lung = system: NCI-H23 lung
NCI-H460 lung = system: NCI-H460 lung
NCI-H522 lung = system: NCI-H522 lung
OVCAR-8 ovarian = system: OVCAR-8 ovarian
PC-3 prostate = system: PC-3 prostate
RPMI-8226 leukemia = system: RPMI-8226 leukemia
SF-268 CNS = system: SF-268 CNS
SF-295 CNS = system: SF-295 CNS
SF-539 CNS = system: SF-539 CNS
SK-MEL-28 melanoma = system: SK-MEL-28 melanoma
SK-MEL-5 melanoma = system: SK-MEL-5 melanoma
SK-OV-3 ovarian = system: SK-OV-3 ovarian
SN12C renal = system: SN12C renal
SNB-19 CNS = system: SNB-19 CNS
SNB-75 CNS = system: SNB-75 CNS
SR leukemia = system: SR leukemia
SW-620 colon = system: SW-620 colon
T-47D breast = system: T-47D breast
TK-10 renal = system: TK-10 renal
UACC-257 melanoma = system: UACC-257 melanoma
UACC-62 melanoma = system: UACC-62 melanoma
UO-31 renal = system: UO-31 renal
HOP-92 NSCLC = system: HOP-92 NSCLC
NCI/ADR-RES ovarian = system: NCI/ADR-RES ovarian
OVCAR-3 ovarian = system: OVCAR-3 ovarian
OVCAR-4 ovarian = system: OVCAR-4 ovarian
OVCAR-5 ovarian = system: OVCAR-5 ovarian
SK-MEL-2 melanoma = system: SK-MEL-2 melanoma
U251 CNS = system: U251 CNS

Measured: TGI

COc1cccc(C2SC(N)=Nc3c2c(C)nn3C(=O)Cc2ccccc2)c1 (stereo not drawn)
> 100 µM: 786-0 renal | A498 renal | A549 NSCLC | ACHN renal | BT-549 breast | CAKI-1 renal | CCRF-CEM leukemia | COLO 205 colon | DU-145 prostate | EKVX NSCLC | HCC-2998 colon | HCT-116 colon | HCT-15 colon | HL-60(TB) leukemia | HOP-62 NSCLC | HS 578T breast | HT29 colon | IGROV1 ovarian | K-562 leukemia | KM12 colon | LOX IMVI melanoma | M14 melanoma | MALME-3M melanoma | MCF7 breast | MDA-MB-231 breast | MDA-MB-435 | MDA-N | MOLT-4 leukemia | NCI-H226 lung | NCI-H23 lung | NCI-H460 lung | NCI-H522 lung | OVCAR-8 ovarian | PC-3 prostate | RPMI-8226 leukemia | SF-268 CNS | SF-295 CNS | SF-539 CNS | SK-MEL-28 melanoma | SK-MEL-5 melanoma | SK-OV-3 ovarian | SN12C renal | SNB-19 CNS | SNB-75 CNS | SR leukemia | SW-620 colon | T-47D breast | TK-10 renal | UACC-257 melanoma | UACC-62 melanoma | UO-31 renal

CSc1ccc(Nc2cc(=O)[nH]c(=O)[nH]2)cc1
> 100 µM: 786-0 renal | A498 renal | A549 NSCLC | ACHN renal | BT-549 breast | CAKI-1 renal | CCRF-CEM leukemia | COLO 205 colon | DU-145 prostate | HCC-2998 colon | HCT-116 colon | HCT-15 colon | HL-60(TB) leukemia | HOP-92 NSCLC | HS 578T breast | HT29 colon | K-562 leukemia | LOX IMVI melanoma | M14 melanoma | MALME-3M melanoma | MCF7 breast | MDA-MB-231 breast | MDA-MB-435 | MDA-N | MOLT-4 leukemia | NCI-H226 lung | NCI-H23 lung | NCI-H460 lung | NCI-H522 lung | NCI/ADR-RES ovarian | OVCAR-3 ovarian | OVCAR-4 ovarian | OVCAR-5 ovarian | OVCAR-8 ovarian | PC-3 prostate | RPMI-8226 leukemia | SF-268 CNS | SF-295 CNS | SF-539 CNS | SK-MEL-2 melanoma | SK-MEL-28 melanoma | SK-MEL-5 melanoma | SK-OV-3 ovarian | SN12C renal | SNB-19 CNS | SR leukemia | SW-620 colon | T-47D breast | U251 CNS | UACC-257 melanoma | UACC-62 melanoma | UO-31 renal
